Measured values taken from patent publication US9708316B2 (BRISTOL-MYERS SQUIBB COMPANY, priority 2014, dated 2017).

Target: HIS-TGFβR2 WT (Homo sapiens, UniProt P37173)
Assay: HTRF probe-displacement assay, HIS-TGFβR2 WT
Type: binding

Sequence of HIS-TGFβR2 WT (P37173 23-567): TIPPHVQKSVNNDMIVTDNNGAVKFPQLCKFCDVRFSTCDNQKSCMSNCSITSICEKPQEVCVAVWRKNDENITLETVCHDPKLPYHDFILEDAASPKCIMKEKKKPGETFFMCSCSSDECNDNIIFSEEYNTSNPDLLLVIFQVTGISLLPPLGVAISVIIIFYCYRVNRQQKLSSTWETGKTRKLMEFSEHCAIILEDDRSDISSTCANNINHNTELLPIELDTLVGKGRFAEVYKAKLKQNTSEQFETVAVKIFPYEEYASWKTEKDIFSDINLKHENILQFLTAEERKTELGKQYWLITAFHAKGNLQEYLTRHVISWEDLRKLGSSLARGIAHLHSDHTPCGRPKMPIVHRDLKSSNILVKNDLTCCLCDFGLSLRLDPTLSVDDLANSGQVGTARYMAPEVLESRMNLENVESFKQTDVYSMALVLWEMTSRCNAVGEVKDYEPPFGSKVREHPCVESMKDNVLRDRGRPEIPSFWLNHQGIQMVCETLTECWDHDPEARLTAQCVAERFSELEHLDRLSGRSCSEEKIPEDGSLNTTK

Row | Compound | IC50 [µM]
1 | CCc1ccnc2c(-c3cccc(C(F)F)n3)c(-c3ccnc(NC(C)=O)c3)[nH]c12 [Example 128, N-(4-{3-[6-(Difluoromethyl)pyridin-2-yl]-7-ethyl-1H-pyrrolo[3,2-b]pyridin-2-yl}pyridin-2-yl)acetamide] | 5.26
2 | COCC(C)Oc1cnc2c(-c3cccc(C(F)F)n3)c(-c3ccnc(NC(C)=O)c3)[nH]c2c1 (centres unmarked) [Example 103] | 4.92
3 | COc1ccnc2c(-c3nc(C(F)F)cs3)c(-c3ccnc(NC(C)=O)c3)[nH]c12 [Example 270, N-(4-(3-(4-(Difluoromethyl)thiazol-2-yl)-7-methoxy-1H-pyrrolo[3,2-b]pyridin-2-yl)pyridin-2-yl)acetamide] | 7.55
4 | CC(=O)Nc1cc(-c2[nH]c3cc(F)cnc3c2-c2csc(C)n2)ccn1 [Example 207, N-(4-(6-Fluoro-3-(2-methylthiazol-4-yl)-1H-pyrrolo[3,2-b]pyridin-2-yl)pyridin-2-yl)acetamide] | 5.65

Now those with a lower IC50, led by results:

Row | IC50 [µM] | Compound
5 | 1.36 | COc1ccnc2c(-c3cccc(F)n3)c(-c3ccnc(NC(C)=O)c3)[nH]c12 [Example 273, N-(4-(3-(6-Fluoropyridin-2-yl)-7-methoxy-1H-pyrrolo[3,2-b]pyridin-2-yl)pyridin-2-yl)acetamide]
6 | 2.62 | [2H]C([2H])([2H])Oc1cnc2c(-c3cccc(C(F)F)n3)c(-c3ccnc(NC(C)=O)c3)[nH]c2c1 [Example 100, N-(4-(3-(6-(Difluoromethyl)pyridin-2-yl)-6-(methoxy-d3)-1H-pyrrolo[3,2-b]pyridin-2-yl)pyridin-2-yl)acetamide]
7 | 3.45 | CC(=O)Nc1cc(-c2[nH]c3cc(OC(C)C)cnc3c2-c2cccc(C(F)F)n2)ccn1 [Example 102, N-(4-(3-(6-(Difluoromethyl)pyridin-2-yl)-6-isopropoxy-1H-pyrrolo[3,2-b]pyridin-2-yl)pyridin-2-yl)acetamide]
8 | 1.07 | CC(=O)Nc1cc(-c2[nH]c3cc(Cl)cnc3c2-c2csc(C)n2)ccn1 [Example 181, N-(4-(6-Chloro-3-(2-methylthiazol-4-yl)-1H-pyrrolo[3,2-b]pyridin-2-yl)pyridin-2-yl)acetamide]
9 | 4.29 | CCOc1cnc2c(-c3cccc(C(F)F)n3)c(-c3ccnc(NC(C)=O)c3)[nH]c2c1 [Example 101, N-(4-(3-(6-(Difluoromethyl)pyridin-2-yl)-6-ethoxy-1H-pyrrolo[3,2-b]pyridin-2-yl)pyridin-2-yl)acetamide]
10 | 4.24 | COc1cnc2c(-c3csc(C#N)n3)c(-c3ccnc(NC(C)=O)c3)[nH]c2c1 [Example 228, N-(4-(3-(2-Cyanothiazol-4-yl)-6-methoxy-1H-pyrrolo[3,2-b]pyridin-2-yl)pyridin-2-yl)acetamide]
11 | 2.75 | CC(=O)Nc1cc(-c2[nH]c3cc(OC4COC4)cnc3c2-c2cccc(C(F)F)n2)ccn1 [Example 99, N-(4-(3-(6-(Difluoromethyl)pyridin-2-yl)-6-(oxetan-3-yloxy)-1H-pyrrolo[3,2-b]pyridin-2-yl)pyridin-2-yl)acetamide]
